System: UCD patients
Assay: Example 3: TEAEs, serious and non-serious adverse events
Type: in vivo
Source text: Sixteen newborn infants aged 0 to 27 days, and 10 infants and toddlers aged 28 days to 23 months received RAVICTI Oral Liquid administered just prior to breastfeeding or intake of formula or food. The recommended dosing regimen was 3-6 times per day depending on feeding schedule.
Number of Subjects with Treatment-Emergent Adverse Events (TEAEs), Serious TEAEs, Deaths, and Discontinuations Due to TEAEs
An adverse event (AE) is any untoward medical occurrence, whether or not the event is considered related to the study drug. A serious AE is any AE that: results in death; is life threatening; requires hospitalization or prolongation of existing hospitalization; results in disability/incapacity; is a congenital anomaly/birth defect; is an important medical event. TEAEs are defined as AEs with an onset date on or after the first dose of study medication until study discontinuation. The Investigator assessed the causal relationship of each TEAE to the study drug as not related, possibly related, or probably related. From the first dose of study treatment through 30 days after the final dose (mean [SD] duration of treatment was 9.13 [6.838] months).

[1] = Non-serious adverse events, Age 0 to <2 Months
[2] = Non-serious adverse events, Age 2 Months to <2 Years
[3] = aged 0 to 2 months, 16 analyzed
[4] = aged 2 months and up to 2 years, 10 analyzed

SMILES: O=C(CCCc1ccccc1)OCC(COC(=O)CCCc1ccccc1)OC(=O)CCCc1ccccc1 [RAVICTI, benzenebutanoic acid, 1′,1″-(1,2,3-propanetriyl) ester]
- Irritability, Occurrences (all) [1]: 1
- Lethargy, Occurrences (all) [1]: 1
- Leukocytosis, Occurrences (all) [1]: 1
- Lower respiratory tract infection, Occurrences (all) [1]: 1
- Lymphocytosis, Occurrences (all) [1]: 1
- Medical device site haemorrhage, Occurrences (all) [1]: 1
- Metabolic acidosis, Occurrences (all) [1]: 2
- Microcytic anaemia, Occurrences (all) [1]: 1
- Musculoskeletal and connective tissue Disorders (Torticollis), Occurrences (all) [1]: 1
- Nail ridging, Occurrences (all) [1]: 0
- Nasal congestion, Occurrences (all) [1]: 2
- Nasopharyngitis, Occurrences (all) [1]: 7
- Nephrolithiasis, Occurrences (all) [1]: 1
- Neutropenia, Occurrences (all) [1]: 1
- Ocular hyperaemia, Occurrences (all) [1]: 1
- Oral candidiasis, Occurrences (all) [1]: 2
- Oropharyngeal pain, Occurrences (all) [1]: 2
- Otitis media acute, Occurrences (all) [1]: 1
- Otitis media, Occurrences (all) [1]: 1
- Pharyngitis, Occurrences (all) [1]: 0
- Plagiocephaly, Occurrences (all) [1]: 2
- Platelet count increased, Occurrences (all) [1]: 1
- Pneumonia, Occurrences (all) [1]: 0
- Pneumothorax, Occurrences (all) [1]: 1
- Post-tussive vomiting, Occurrences (all) [1]: 1
- Protein deficiency, Occurrences (all) [1]: 2
- Pyrexia, Occurrences (all) [1]: 3
- Rash, Occurrences (all) [1]: 6
- Red man syndrome, Occurrences (all) [1]: 1
- Respiratory disorder, Occurrences (all) [1]: 0
- Respiratory syncytial virus infection, Occurrences (all) [1]: 1
- Rhinorrhoea, Occurrences (all) [1]: 0
- Rhinovirus infection, Occurrences (all) [1]: 1
- Seborrhoeic dermatitis, Occurrences (all) [1]: 2
- Sinusitis, Occurrences (all) [1]: 1
- Stoma site reaction, Occurrences (all) [1]: 1
- Tachypnoea, Occurrences (all) [1]: 1
- Teething, Occurrences (all) [1]: 3
- Thrombocytopenia, Occurrences (all) [1]: 2
- Thrombocytosis, Occurrences (all) [1]: 2
- Tibia fracture, Occurrences (all) [1]: 0
- Transaminases increased, Occurrences (all) [1]: 1
- Tremor, Occurrences (all) [1]: 1
- Upper respiratory tract infection, Occurrences (all) [1]: 7
- Urinary tract infection, Occurrences (all) [1]: 2
- Use of accessory respiratory muscles, Occurrences (all) [1]: 1
- Vascular disorders (Venous thrombosis limb), Occurrences (all) [1]: 0
- Vesicoureteric reflux, Occurrences (all) [1]: 0
- Viral infection, Occurrences (all) [1]: 1
- Vomiting, Occurrences (all) [1]: 12
- Weight decreased, Occurrences (all) [1]: 1
- Agitation, Occurrences (all) [2]: 0
- Alanine aminotransferase increased, Occurrences (all) [2]: 0
- Amino acid level decreased, Occurrences (all) [2]: 1
- Amino acid level increased, Occurrences (all) [2]: 0
- Ammonia increased, Occurrences (all) [2]: 1
- Anaemia, Occurrences (all) [2]: 1
- Angular cheilitis, Occurrences (all) [2]: 0
- Anion gap increased, Occurrences (all) [2]: 0
- Apnoea, Occurrences (all) [2]: 1
- Arthropod bite, Occurrences (all) [2]: 0
- Aspartate aminotransferase increased, Occurrences (all) [2]: 0
- Blood bicarbonate decreased, Occurrences (all) [2]: 0
- Blood urea decreased, Occurrences (all) [2]: 0
- Body height below normal, Occurrences (all) [2]: 0
- Candida infection, Occurrences (all) [2]: 0
- Carbon dioxide decreased, Occurrences (all) [2]: 1
- Cardiac disorders (Tachycardia), Occurrences (all) [2]: 0
- Catheter site rash, Occurrences (all) [2]: 0
- Conjunctivitis, Occurrences (all) [2]: 1
- Constipation, Occurrences (all) [2]: 2
- Cough, Occurrences (all) [2]: 2
- Croup infectious, Occurrences (all) [2]: 1
- Dacryostenosis congenital, Occurrences (all) [2]: 1
- Decreased appetite, Occurrences (all) [2]: 0
- Dehydration, Occurrences (all) [2]: 0
- Dermatitis diaper, Occurrences (all) [2]: 1
- Device occlusion, Occurrences (all) [2]: 0
- Diarrhoea, Occurrences (all) [2]: 1
- Drug withdrawal syndrome, Occurrences (all) [2]: 0
- Dysphagia, Occurrences (all) [2]: 0
- Ear and labyrinth disorders (Excessive cerumen production), Occurrences (all) [2]: 1
- Ear infection, Occurrences (all) [2]: 0
- Eczema, Occurrences (all) [2]: 1
- Eye discharge, Occurrences (all) [2]: 0
- Feeding disorder of infancy or early childhood, Occurrences (all) [2]: 0
- Flatulence, Occurrences (all) [2]: 0
- Gamma-glutamyltransferase increased, Occurrences (all) [2]: 0
- Gastroenteritis, Occurrences (all) [2]: 2
- Gastrointestinal viral infection, Occurrences (all) [2]: 0
- Gastrooesophageal reflux disease, Occurrences (all) [2]: 0
- Gross motor delay, Occurrences (all) [2]: 1
- Hepatic enzyme increased, Occurrences (all) [2]: 0
- Hepatobiliary disorders (Hepatic calcification), Occurrences (all) [2]: 0
- Hyperammonaemia, Occurrences (all) [2]: 0
- Hypophagia, Occurrences (all) [2]: 3
- Immune System Disorders (Seasonal allergy), Occurrences (all) [2]: 1
- Irritability, Occurrences (all) [2]: 0
- Lethargy, Occurrences (all) [2]: 0
- Leukocytosis, Occurrences (all) [2]: 0
- Lower respiratory tract infection, Occurrences (all) [2]: 0
- Lymphocytosis, Occurrences (all) [2]: 0
- Medical device site haemorrhage, Occurrences (all) [2]: 0
- Metabolic acidosis, Occurrences (all) [2]: 2
- Microcytic anaemia, Occurrences (all) [2]: 0
- Musculoskeletal and connective tissue Disorders (Torticollis), Occurrences (all) [2]: 0
- Nail ridging, Occurrences (all) [2]: 1
- Nasal congestion, Occurrences (all) [2]: 1
- Nasopharyngitis, Occurrences (all) [2]: 2
- Nephrolithiasis, Occurrences (all) [2]: 0
- Neutropenia, Occurrences (all) [2]: 0
- Ocular hyperaemia, Occurrences (all) [2]: 0
- Oral candidiasis, Occurrences (all) [2]: 0
- Oropharyngeal pain, Occurrences (all) [2]: 0
- Otitis media acute, Occurrences (all) [2]: 0
- Otitis media, Occurrences (all) [2]: 2
- Pharyngitis, Occurrences (all) [2]: 1
- Plagiocephaly, Occurrences (all) [2]: 0
- Platelet count increased, Occurrences (all) [2]: 0
- Pneumonia, Occurrences (all) [2]: 1
- Pneumothorax, Occurrences (all) [2]: 0
- Post-tussive vomiting, Occurrences (all) [2]: 0
- Protein deficiency, Occurrences (all) [2]: 0
- Pyrexia, Occurrences (all) [2]: 2
- Rash, Occurrences (all) [2]: 3
- Red man syndrome, Occurrences (all) [2]: 0
- Respiratory disorder, Occurrences (all) [2]: 1
- Rhinorrhoea, Occurrences (all) [2]: 1
- Seborrhoeic dermatitis, Occurrences (all) [2]: 1
- Sinusitis, Occurrences (all) [2]: 2
- Stoma site reaction, Occurrences (all) [2]: 1
- Tachypnoea, Occurrences (all) [2]: 0
- Teething, Occurrences (all) [2]: 1
- Thrombocytopenia, Occurrences (all) [2]: 0
- Thrombocytosis, Occurrences (all) [2]: 0
- Tibia fracture, Occurrences (all) [2]: 1
- Transaminases increased, Occurrences (all) [2]: 0
- Tremor, Occurrences (all) [2]: 0
- Upper respiratory tract infection, Occurrences (all) [2]: 6
- Urinary tract infection, Occurrences (all) [2]: 1
- Use of accessory respiratory muscles, Occurrences (all) [2]: 0
- Vascular disorders (Venous thrombosis limb), Occurrences (all) [2]: 2
- Vesicoureteric reflux, Occurrences (all) [2]: 1
- Viral infection, Occurrences (all) [2]: 1
- Vomiting, Occurrences (all) [2]: 5
- Weight decreased, Occurrences (all) [2]: 0
- Subjects with TEAE leading to study discontinuation [3]: one
- Subjects with fatal outcome TEAE [3]: no fatal outcome TEAEs
- Subjects with one or more TEAE [3]: 16 subjects
- Subjects with one or more related TEAE [3]: Ten
- Subjects with one or more serious TEAE [3]: 11 subjects
- Subjects with serious related TEAEs [3]: no subjects
- Subjects with TEAE leading to study discontinuation [4]: one
- Subjects with fatal outcome TEAE [4]: One
- Subjects with one or more TEAE [4]: 10 subjects
- Subjects with one or more related TEAE [4]: Four
- Subjects with one or more serious TEAE [4]: 6 subjects
- Subjects with serious related TEAEs [4]: no subjects
- Respiratory syncytial virus infection, Occurrences (all) (in vivo): 0
- Respiratory syncytial virus infection, Subjects Affected/Exposed (in vivo): 0/10 (0.00%)
- Rhinovirus infection, Occurrences (all) (in vivo): 0
- Rhinovirus infection, Subjects Affected/Exposed (in vivo): 0/10 (0.00%)
- Serious AE Respiratory syncytial virus infection: Occurrences causally related to treatment/all (in vivo): 0/0
- Serious AE Respiratory syncytial virus infection: Subjects Affected/Exposed (in vivo): 0/10 (0.00%)
- Serious AE Rhinovirus infection: Occurrences causally related to treatment/all (in vivo): 0/1
- Serious AE Rhinovirus infection: Subjects Affected/Exposed (in vivo): 1/10 (10.00%)

Source: US10668040B2, “Treatment of urea cycle disorders in neonates and infants” (Horizon Therapeutics, LLC, priority 2017, dated 2020)
